The results in this text go back to patent publication US20210052719A1, “A UNIVERSAL VACCINE AGAINST INFLUENZA” (Development Center for Biotechnology, priority 2017, published 2021).

No end group written: not given here.

Series [1] has as its system protease. Particulars: phenylalanine residues of JJ substituted.
Series [2] has as its system influenza viruses of the H3 subtype. Details: species or system influenza virus.
In series [3] the test system is H3 subtype of hemagglutinin. As to the kind of experiment: ELISA antibody titers against hemagglutinin subtypes. The series is classed as binding, influenza virus. The conditions noted are these: FIG. 3. As for the experimental part: (§1) Antibody titers were determined using ELISA. First, a capture antibody (e.g., JJ peptide or various subtypes of hemagglutinins or fragments thereof) was coated on a 96-well microplate (100 μL per well of the diluted capture antibody). The plate was sealed and incubated at 4° C. overnight. Then, 100 μL of sample (e.g., antiserum) or standards in sample dilution buffer were added per well. The plate was sealed and incubated at room temperature for 1 hr.
(§2) After incubation, 100 μL of a detection antibody (e.g., a horseradish peroxidase (HRP) coupled antibody), diluted in antibody dilution buffer, was added to each well. The plate was sealed and incubated at room temperature for 1 hr. Then, 200 μL of substrate solution (3,3′,5,5′-tetramethylbenzidine (TMB)) was added to each well. The reaction mixtures were incubated for 20 minutes at room temperature, without exposing the plate to direct light.
(§3) After the reaction, 50 μL of stop solution (acid solution) was added to each well. Then, the optical density of each well was measured immediately, using a microplate reader set to 450 nm.
A general note: An ELISA detects its analyte on a solid surface through an enzyme-linked reagent.

For series [4], the system named is H1 subtype of hemagglutinin. Described as above. The series is classed as binding, influenza virus. The conditions noted are these: FIG. 3. As for the experimental part:
as §1, §2, §3

Series [5] deals with H7 subtype of hemagglutinin. It is filed as binding, influenza virus.
In series [6] the test system is H5 subtype of hemagglutinin. It is filed as binding, influenza virus.
Series [7] relates to influenza viruses of the H1 subtype. Details: species or system influenza virus.
Series [8] has as its system JJ peptide. Briefly: ELISA cross-reaction of induced IgGs with JJ peptide coated on plate. The conditions noted are these: IgGs induced by the peptide, FIG. 2A, 2B. The series is classed as binding. The method, then: as §1, §2, §3
For series [9], the system named is influenza viruses of the H5 subtype. Details: species or system influenza virus.
Series [10] is described as follows: antibody generation by immunizing mice with peptide, serum IgG by ELISA. The series is classed as in vivo, BALB/c and C57BL/6 mice. Particulars: for induction of antibody (specific anti-JJ IgG): 5 μg, 15 μg, or 45 μg dose, ELISA with JJ peptide coated, FIG. 2A, 2B. The method, then: In this example, the peptide antigens in accordance with embodiments of the invention were used to induce antibody formation in mice. BALB/c and C57BL/6 mice (6-8 weeks old) were obtained from BioLASCO Taiwan (Taipei, Taiwan) or National Laboratory Animal Center (Taipei, Taiwan).
[…] Each group of mice was injected with a different peptide (Exp0-Exp5) solution as an antigen. For the first immunization, each mouse was given a subcutaneous injection with 100 μL (containing […] each) of the above prepared antigen solution.
The second injection was given 10-14 days after the first injection. The solution for the second injection was prepared by mixing each peptide (6 different peptides, Exp0-Exp5, each at 1:1 mix) in Freund's incomplete adjuvant. The injections were repeated for subsequent immunizations every 10-14 days after the previous injections until antibodies could be detected in sera, which took from 3-6 injections.
Mouse sera were collected at the following time points: preimmunization and at the middle time point between two adjacent injections. Once the antibodies became detectable in sera, the serum collections were performed every two weeks until antibodies could no longer be detected, which typically took about half a year. The serum collections were performed from the cheeks of the mice. Each time, 100 uL or less of blood was collected and the collection frequency was about once every two weeks. At the end of the experiments, mice were euthanized with carbon dioxide.
Antibody titers were determined using ELISA. First, a capture antibody (e.g., JJ peptide or various subtypes of hemagglutinins or fragments thereof) was coated on a 96-well microplate (100 μL per well of the diluted capture antibody). The plate was sealed and incubated at 4° C. overnight. Then, 100 μL of sample (e.g., antiserum) or standards in sample dilution buffer were added per well. […]
as §3

Turning to GLMGAIAGPIEF [JJ-2], in series [1], the protease resistance entry is recorded as “protease-resistant”.
In the case of GLLGAIAGPIEF [JJ-1], the “inhibition of hemagglutination by induced antibodies” value in [2], in [7] and in series [9] was “able to inhibit hemagglutination” each time. Also, the “reaction of antibodies generated with the peptide with hemagglutinin” value in [3], in series [4], in series [5] and in [6] was “reacted” throughout. In addition, in [1], the protease resistance entry is “protease-resistant”. Further, in [8], the “binding of induced IgGs to JJ peptide (cross-reaction)” value is on record as “bind the JJ peptide”. Moreover, the “induction of antibody (specific anti-JJ IgG)” value in series [10] was “efficiently induce IgG production”.
For the sequence GLHGAIAGLIENGW [JJ-4], the protease resistance result in series [1] was “protease-resistant”.
Consider GLLGAIAGPIEGGW [JJ-3], for which the protease resistance entry in series [1] is given as “protease-resistant”. The “induction of antibody (specific anti-JJ3 IgG)” value in [10] (higher doses (15 μg and 45 μg), ELISA with peptide JJ-3 coated, FIG. 2C) was “induced the production of specific anti-JJ3 antibodies”.
For GLFGAIAGFIE [JJ], the “inhibition of hemagglutination by induced antibodies” value in series [2], in series [7] and in [9] was “able to inhibit hemagglutination” each time. Further, the “reaction of antibodies generated with the peptide with hemagglutinin” value in series [3], in series [4], in series [5] and in series [6] was “reacted” throughout. For the same sequence, in [8], the “binding of induced IgGs to JJ peptide (cross-reaction)” value is “bind the JJ peptide”. Moreover, the “induction of antibody (specific anti-JJ IgG)” value in series [10] is recorded as “induced antibody (IgG) production”.
